Literature values as cited in patent publication US12280031B2, “Teriflunomide topical pharmaceutical compositions” (APRAMITHA INNOVATIONS PRIVATE LIMITED, priority 2018, dated 2025).

Assays:
patients = details: oral teriflunomide, dose-dependent

Structure (SMILES): C/C(O)=C(\C#N)C(=O)Nc1ccc(C(F)(F)F)cc1 [Teriflunomide, (Z)-2-cyano-3-hydroxy-but-2-enoic acid-(4′-trifluoromethylphenyl)-amide]
- pKa: 5.2
- solubility in water (water): very slightly soluble
- adverse effects (patients): nausea, diarrhoea, hair thinning/decreased hair density, and elevated alanine aminotransferase (ALT) levels
